Biological target: Dual specificity calcium/calmodulin-dependent 3',5'-cyclic nucleotide phosphodiesterase 1C (Homo sapiens, UniProt Q14123)
Assay: Inhibition of PDE1C (147 to 531 residues) (unknown origin) expressed in Escherichia coli BL21 at 1000 nM [3H]-cGMP as substrate measured for 15 mins by liquid scintillation counter method relative to control

Sequence of Dual specificity calcium/calmodulin-dependent 3',5'-cyclic nucleotide phosphodiesterase 1C (Q14123 whole entry, the tested form may be a part): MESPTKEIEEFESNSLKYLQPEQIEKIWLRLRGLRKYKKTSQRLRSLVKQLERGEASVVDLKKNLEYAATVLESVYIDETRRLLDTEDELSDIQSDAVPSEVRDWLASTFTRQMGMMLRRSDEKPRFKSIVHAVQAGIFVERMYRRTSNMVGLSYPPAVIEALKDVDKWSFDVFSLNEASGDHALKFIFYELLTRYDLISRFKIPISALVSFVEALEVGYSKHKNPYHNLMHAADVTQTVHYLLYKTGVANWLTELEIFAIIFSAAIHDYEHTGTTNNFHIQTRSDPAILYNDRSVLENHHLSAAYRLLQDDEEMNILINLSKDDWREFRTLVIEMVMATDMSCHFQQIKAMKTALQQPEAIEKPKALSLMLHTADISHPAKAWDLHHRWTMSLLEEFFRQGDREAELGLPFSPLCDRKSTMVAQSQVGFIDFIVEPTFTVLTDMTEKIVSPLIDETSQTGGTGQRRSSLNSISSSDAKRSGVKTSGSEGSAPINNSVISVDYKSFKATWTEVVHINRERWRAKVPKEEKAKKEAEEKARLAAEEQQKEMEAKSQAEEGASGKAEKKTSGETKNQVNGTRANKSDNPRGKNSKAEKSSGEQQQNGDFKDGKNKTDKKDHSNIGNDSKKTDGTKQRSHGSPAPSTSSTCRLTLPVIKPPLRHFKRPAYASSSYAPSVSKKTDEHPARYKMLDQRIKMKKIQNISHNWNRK

| SMILES | inhibition [%] |
| --- | --- |
| COC(=O)C1=C(C)NC(C)=C(C(=O)OC)C1c1cccc(C#N)c1 | 25 |
| COC(=O)C1=C(C)NC(C)=C(C(=O)OC)C1c1cccc(OC)c1 | 7 |

From ChEMBL document CHEMBL5154941, “Structural Modifications of Nimodipine Lead to Novel PDE1 Inhibitors with Anti-pulmonary Fibrosis Effects” (J Med Chem, 2022)
